17 compounds from ChEMBL document CHEMBL1955752, “Synthesis and evaluation of fluorobenzoylated di- and tripeptides as inhibitors of cyclooxygenase-2 (COX-2)” (Bioorg Med Chem, 2012) can be followed below.

Activity calls are given as the source filed them. The rule behind the calls is not given here. Residues, ends and D or L forms follow the SMILES beside them.

In assay [1] the target is T1, Prostaglandin G/H synthase 2 (Homo sapiens, UniProt P35354).
T1 sequence (P35354 whole entry): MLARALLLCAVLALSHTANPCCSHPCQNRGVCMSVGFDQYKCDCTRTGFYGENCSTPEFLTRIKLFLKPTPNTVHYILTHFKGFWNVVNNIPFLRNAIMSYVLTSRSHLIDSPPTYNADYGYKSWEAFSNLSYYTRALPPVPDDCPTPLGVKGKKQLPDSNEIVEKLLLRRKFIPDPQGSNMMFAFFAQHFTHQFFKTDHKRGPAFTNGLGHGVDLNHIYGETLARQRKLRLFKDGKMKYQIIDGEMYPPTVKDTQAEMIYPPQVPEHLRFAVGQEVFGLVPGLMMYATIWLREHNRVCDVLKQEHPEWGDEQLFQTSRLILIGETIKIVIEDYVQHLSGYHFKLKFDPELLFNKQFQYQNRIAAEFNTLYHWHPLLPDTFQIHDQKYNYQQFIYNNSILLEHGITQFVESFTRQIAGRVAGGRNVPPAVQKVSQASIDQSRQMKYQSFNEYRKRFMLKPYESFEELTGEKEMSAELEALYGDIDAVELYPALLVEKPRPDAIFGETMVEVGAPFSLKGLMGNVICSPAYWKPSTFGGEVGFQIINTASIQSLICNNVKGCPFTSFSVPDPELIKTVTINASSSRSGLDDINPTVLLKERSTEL
Put plainly: Inhibition of human recombinant COX2 by fluorescence assay.

Assay [2] concerns the target T2, Prostaglandin G/H synthase 1 (Ovis aries) (UniProt P05979).
T2 sequence (whole entry): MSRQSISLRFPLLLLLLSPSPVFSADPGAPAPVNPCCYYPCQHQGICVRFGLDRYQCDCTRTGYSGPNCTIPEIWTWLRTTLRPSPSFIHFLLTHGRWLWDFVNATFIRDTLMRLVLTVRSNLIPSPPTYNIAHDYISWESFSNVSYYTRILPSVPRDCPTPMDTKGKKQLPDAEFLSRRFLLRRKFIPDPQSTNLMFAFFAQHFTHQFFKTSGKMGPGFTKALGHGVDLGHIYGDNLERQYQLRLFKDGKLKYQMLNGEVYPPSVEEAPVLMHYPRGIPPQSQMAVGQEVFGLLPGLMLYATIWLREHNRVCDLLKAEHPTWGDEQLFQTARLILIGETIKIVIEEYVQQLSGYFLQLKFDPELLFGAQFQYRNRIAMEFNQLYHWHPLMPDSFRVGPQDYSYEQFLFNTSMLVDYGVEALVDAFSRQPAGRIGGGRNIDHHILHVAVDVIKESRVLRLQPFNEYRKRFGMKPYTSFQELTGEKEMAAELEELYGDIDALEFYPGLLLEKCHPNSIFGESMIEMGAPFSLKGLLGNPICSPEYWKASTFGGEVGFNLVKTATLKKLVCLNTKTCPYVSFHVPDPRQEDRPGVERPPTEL
Put plainly: Inhibition of ovine COX1 at 1 nM to 1 mM by fluorescence assay.

In assay [3] the target is T3, Prostaglandin G/H synthase 2 (Homo sapiens) (UniProt P35354).
T3 sequence (whole entry): T1 sequence (P35354 whole entry)
Put plainly: Inhibition of human recombinant COX2 at 1 nM to 1 mM by fluorescence assay.

In assay [4] the target is T1, Prostaglandin G/H synthase 2. Put plainly: Inhibition of COX2 by ELISA.
The target is the same in assay [5]. As to the kind of experiment: Binding affinity to COX2 by surface plasmon resonance spectroscopy. On the technique in general: Surface plasmon resonance follows binding to a sensor surface in real time, without labels.
Assay [6] concerns the target T4, Prostaglandin G/H synthase 1 (Ovis aries, UniProt P05979).
T4 sequence (P05979 whole entry): T2 sequence (whole entry)
As to the kind of experiment: Inhibition of ovine COX1 by fluorescence assay.

As a reminder, the IC50 is the concentration needed to halve the response being measured. As to `O=C(O)C[C@H](NC(=O)[C@H](Cc1ccc(O)cc1)NC(=O)c1ccc(F)cc1)C(=O)O`, in assay [1], the IC50 stood at 110 µM. Moreover, the inhibition result in assay [2] was “inactive”.
With `CSCC[C@H](NC(=O)[C@H](Cc1ccccc1)NC(=O)c1ccc(F)cc1)C(=O)N[C@@H](CC(=O)O)C(=O)O`, in assay [1], the IC50 is 450 µM. Also, the inhibition result in assay [2] is “inactive”.
For `O=C(N[C@@H](Cc1ccc(O)cc1)C(=O)N[C@@H](Cc1c[nH]c2ccccc12)C(=O)N[C@@H](CO)C(=O)O)c1ccc(F)cc1` the same measures were 180 µM and “inactive”.
For `N[C@@H](Cc1c[nH]c2ccccc12)C(=O)N[C@@H](Cc1ccc(O)cc1)C(=O)N[C@@H](CC(=O)O)C(=O)O` (H-Trp-Tyr-Asp-OH) the same measures were 700 µM and “inactive”.
For `CSCC[C@H](NC(=O)[C@H](Cc1ccccc1)NC(=O)c1ccc(F)cc1)C(=O)N[C@@H](CCC(=O)O)C(=O)O` the same measures were more than 1000 µM and “inactive”.
Consider `CSCC[C@H](NC(=O)[C@H](Cc1ccc(O)cc1)NC(=O)c1ccc(F)cc1)C(=O)N[C@@H](CC(=O)O)C(=O)O`, for which, in assay [1], the IC50 was more than 1000 µM. Besides, the inhibition entry in assay [2] is “inactive”.
As to `CSCC[C@H](NC(=O)[C@H](Cc1c[nH]c2ccccc12)NC(=O)c1ccc(F)cc1)C(=O)N[C@@H](CCC(=O)O)C(=O)O`, the IC50 in assay [1] was 350 µM. The inhibition result in assay [2] is “inactive”.
Take `O=C(O)C[C@H](NC(=O)[C@H](Cc1ccc(O)cc1)NC(=O)[C@H](Cc1c[nH]c2ccccc12)NC(=O)c1ccc(F)cc1)C(=O)O`: the inhibition result in assay [3] and in assay [2] was “inactive” throughout.
With `O=C(N[C@@H](Cc1ccc(O)cc1)C(=O)N[C@@H](CO)C(=O)O)c1ccc(F)cc1`, the IC50 in assay [1] came to 140 µM. In addition, in assay [2], the inhibition result was “inactive”.
Broadly, the Kd is the free concentration of one partner at which half of the binding sites on the other are occupied at equilibrium, for simple one-to-one binding. Read a low Kd as a tighter complex. As to `N[C@@H](Cc1c[nH]c2ccccc12)C(=O)N[C@@H](CS)C(=O)N[C@@H](CO)C(=O)O` (H-Trp-Cys-Ser-OH), the IC50 in assay [4] came to 15 nM; in assay [1], 21 µM; in assay [6], 6 µM. This compound had a Kd in assay [5] of 0.19 nM.
As for `O=C(N[C@@H](Cc1c[nH]c2ccccc12)C(=O)N[C@@H](CO)C(=O)O)c1ccc(F)cc1`, in assay [1], the IC50 was 200 µM. Moreover, the inhibition entry in assay [2] is “inactive”.
As for `O=C(O)C[C@H](NC(=O)[C@H](CS)NC(=O)c1ccc(F)cc1)C(=O)O`, the IC50 came out at 14 µM in assay [1] and 15 µM in assay [6].
On to `CSCC[C@H](NC(=O)[C@H](Cc1c[nH]c2ccccc12)NC(=O)c1ccc(F)cc1)C(=O)N[C@@H](CC(=O)O)C(=O)O`, for which the concentration for half-maximal inhibition (IC50) in assay [1] is 450 µM. Also, the inhibition entry in assay [2] was “inactive”.
`CSCC[C@H](NC(=O)[C@H](Cc1ccc(O)cc1)NC(=O)c1ccc(F)cc1)C(=O)N[C@@H](CCC(=O)O)C(=O)O`: the IC50 in assay [1] was determined as 500 µM. Also, the inhibition result in assay [2] is “inactive”.
Turning to `O=C(N[C@@H](CS)C(=O)N[C@@H](CO)C(=O)O)c1ccc(F)cc1`, the IC50 in assay [1] stood at 15 µM; in assay [6], 5 µM.
For `O=C(N[C@@H](Cc1ccccc1)C(=O)N[C@@H](CS)C(=O)N[C@@H](CO)C(=O)O)c1ccc(F)cc1` the same measures were 13 µM and 27 µM.
As for `O=C(N[C@@H](Cc1c[nH]c2ccccc12)C(=O)N[C@@H](CS)C(=O)N[C@@H](CO)C(=O)O)c1ccc(F)cc1`, the IC50 in assay [1] amounted to 85 µM; in assay [6], 140 µM.
